Numbers after ± are expanded uncertainties.
Test: molar heat capacity at constant pressure
Conditions: 101.33 kPa, Vacuum adiabatic calorimetry

[2H]O[2H] [water-d2]
molar heat capacity at constant pressure [J/K/mol]
Conditions | Crystal | Liquid
155.87 K | 26.52 ± 0.22 | –
158.32 K | 26.94 ± 0.22 | –
160 K | 27.2 ± 0.22 | –
160.81 K | 27.33 ± 0.22 | –
163.26 K | 27.73 ± 0.22 | –
165.71 K | 28.13 ± 0.22 | –
168.15 K | 28.55 ± 0.22 | –
170 K | 28.83 ± 0.23 | –
170.6 K | 28.97 ± 0.23 | –
173.05 K | 29.33 ± 0.23 | –
175.5 K | 29.73 ± 0.23 | –
177.94 K | 30.14 ± 0.23 | –
180 K | 30.47 ± 0.23 | –
180.39 K | 30.54 ± 0.23 | –
182.83 K | 30.96 ± 0.23 | –
185.28 K | 31.33 ± 0.23 | –
187.72 K | 31.71 ± 0.23 | –
190 K | 32.09 ± 0.23 | –
190.17 K | 32.11 ± 0.23 | –
192.61 K | 32.48 ± 0.23 | –
195.05 K | 32.9 ± 0.23 | –
197.5 K | 33.29 ± 0.23 | –
199.99 K | 33.7 ± 0.23 | –
200 K | 33.7 ± 0.23 | –
202.44 K | 34.08 ± 0.23 | –
204.88 K | 34.48 ± 0.23 | –
207.33 K | 34.88 ± 0.23 | –
210 K | 35.29 ± 0.23 | –
210.91 K | 35.46 ± 0.23 | –
213.05 K | 35.74 ± 0.23 | –
215.49 K | 36.17 ± 0.23 | –
217.93 K | 36.56 ± 0.23 | –
220 K | 36.86 ± 0.23 | –
220.38 K | 36.96 ± 0.24 | –
222.82 K | 37.34 ± 0.24 | –
225.26 K | 37.72 ± 0.24 | –
227.71 K | 38.06 ± 0.24 | –
230 K | 38.45 ± 0.24 | –
230.15 K | 38.5 ± 0.24 | –
232.58 K | 38.89 ± 0.24 | –
235.03 K | 39.22 ± 0.24 | –
237.47 K | 39.55 ± 0.24 | –
239.91 K | 39.99 ± 0.24 | –
240 K | 40.05 ± 0.24 | –
242.35 K | 40.38 ± 0.24 | –
244.78 K | 40.92 ± 0.24 | –
247.23 K | 41.27 ± 0.24 | –
249.73 K | 41.6 ± 0.24 | –
250 K | 41.64 ± 0.24 | –
252.17 K | 41.99 ± 0.24 | –
254.61 K | 42.32 ± 0.24 | –
257.04 K | 42.71 ± 0.24 | –
257.41 K | 42.2 ± 0.24 | –
259.48 K | 43.1 ± 0.24 | –
260 K | 43.16 ± 0.24 | –
261.91 K | 43.48 ± 0.24 | –
262.39 K | 43.37 ± 0.24 | –
264.34 K | 43.87 ± 0.24 | –
266.76 K | 44.33 ± 0.24 | –
269.18 K | 44.87 ± 0.24 | –
270 K | 44.55 ± 0.24 | –
271.59 K | 45.53 ± 0.25 | –
273.99 K | 47.53 ± 0.25 | –
274.34 K | – | 85.72 ± 0.25
276.82 K | 45.8 ± 0.25 | 85.38 ± 0.25
278.53 K | – | 85.14 ± 0.25
280 K | – | 84.97 ± 0.25
282.13 K | – | 84.72 ± 0.25
285.21 K | – | 84.64 ± 0.25
286.94 K | – | 84.47 ± 0.25
289.3 K | – | 84.14 ± 0.25
290 K | – | 84.05 ± 0.25
291.67 K | – | 83.97 ± 0.25
294.02 K | – | 83.81 ± 0.25
296.38 K | – | 83.72 ± 0.25
298.15 K | – | 83.47 ± 0.25
298.72 K | – | 83.56 ± 0.25
300 K | – | 83.39 ± 0.25
301.66 K | – | 83.39 ± 0.25
305.18 K | – | 83.14 ± 0.25
308.67 K | – | 83.08 ± 0.28
310 K | – | 82.96 ± 0.28
312.17 K | – | 82.92 ± 0.28
315.64 K | – | 82.85 ± 0.28
319.1 K | – | 82.78 ± 0.28
320 K | – | 82.7 ± 0.28
322.54 K | – | 82.69 ± 0.28
325.97 K | – | 82.58 ± 0.28
329.39 K | – | 82.62 ± 0.28
330 K | – | 82.52 ± 0.28
332.72 K | – | 82.55 ± 0.28
336.11 K | – | 82.57 ± 0.28
339.47 K | – | 82.65 ± 0.28
340 K | – | 82.67 ± 0.28
342.82 K | – | 82.74 ± 0.28
346.15 K | – | 82.71 ± 0.28
350 K | – | 82.8 ± 0.28

Source: the NIST ThermoML archive (doi:10.1016/j.jct.2005.09.005)
